The text below walks through data of patent publication US8912184B1, “Therapeutic and diagnostic methods” (Alzheimer's Institute of America, Inc., priority 2010, dated 2014).

The EC50 is the concentration needed to bring the measured effect to its halfway point.

Each structure is given as a SMILES string. A value given as a limit tells only on which side of the number the result lay.

One data set relates to MIA PaCa2 cell line. In words: cells. The conditions noted are these: Homo sapiens, MIA PaCa-2, 72 h, read-out: EC50 of NA rescue from Exemplary Compound A-induced cytotoxicity. The protocol: (§1) In the second method, cells were exposed to varying concentrations of NA in the presence of a fixed, toxic concentration of Nampt1 inhibitor. This allows determination of the relative effectiveness of NA at rescuing Nampt1 inhibitor-mediated cytotoxicity across cell lines. For this method, the following modifications were made to the standard cytotoxicity assay. Twenty four hours after cell were plated, a serial dilution of nicotinic acid, dissolved in water, was generated and added to the cells. […] Cell viability was then assessed at 72 h. Cell viability (after normalization to controls lacking Nampt1 inhibitor) was plotted against NA concentration.
(§2) In cases where the high asymptote of the NA rescue curve corresponded to 75% or less recovery in cell viability, the cell line was deemed to be partially rescued.
(§3) In the first set of experiments, two different cancer cell lines were employed.

In a further data set the test system is HCT-116 cell line. In words: cells. The conditions noted are these: Homo sapiens, HCT-116, 72 h, read-out: EC50 of NA rescue from Exemplary Compound A-induced cytotoxicity. As to the method: as §1, §2, §3
The format of data set [1] is in vivo. The conditions noted are these: mice, oral NA 3 g/kg 1 h prior or up to 8 h following 300 mg/kg Exemplary Compound A.
Data set [2] has as its system HCT116 cells. In words: 72 Hour HCT116 Cytotoxicity Assay (CellTiter-Glo). It is filed as cell-based. The settings on record: Homo sapiens, HCT-116, 72 h, 72 hours; read-out: HCT116 cell cytotoxicity IC50. Background: Cellular ATP, detected with luciferase, serves as a proxy for viable cell number.
Procedure: HCT116 cells were seeded in 96 well plates (Greiner Bio-One, Monroe, N.C.) and allowed to settle overnight. Test compound dissolved in dimethyl sulfoxide (DMSO) was added and drug incubation proceeded for 72 hours. […] After 72 hour, 50 μL of CellTiter-Glo Luminescent Cell Viability Assay reagent (Promega Corporation, Madison, Wis.) was added to cells in 200 μL of cellular media. After a proscribed incubation period, luminescence was measured using a TopCount NXT plate reader (PerkinElmer, Waltham, Mass.).
Data set [3] deals with HCT116 cells. Nature of the data set: Nicotinic Acid Rescue Cytotoxicity Assay, first method: cytotoxicity to HCT116 cells in presence and absence of 10 μM nicotinic acid. The class given is cell-based. The settings on record: Homo sapiens, HCT-116, 72 h.
Where [4] appears, read: absence of nicotinic acid, read-out: HCT116 72 h cytotoxicity.
Setting [5] is: presence of 10 μM nicotinic acid, read-out: HCT116 72 h cytotoxicity with 10 μM Nicotinic Acid.

For `O=C(O)c1cccnc1` [NA, nicotinic acid], the EC50 with MIA PaCa2 cell line is > 10000 nM; with HCT-116 cell line, 400 nM. Besides, in data set [1], the “effect of NA on Exemplary Compound A lethality” value is “completely blocked”.

For `O=C(NCc1cccnc1)Nc1ccc(COc2cc(C(F)(F)F)ccc2Cl)cc1` [Example 164, 1-(4-{[2-Chloro-5-(trifluorometh-yl)phenoxy]meth-yl}phenyl)-3-(pyridin-3-ylmethyl)urea], the IC50 in the data set on HCT116 cells [2] is ~74 nM.

As for `N#C/N=C(/NCc1ccc(COc2ccccc2-c2ccccc2)cc1)Nc1ccncc1` [Example 605, 1-{4-[(Biphenyl-2-yloxy)methyl]benzyl}-2-cyano-3-pyridin-4-ylguanidine], the IC50 with HCT116 cells [2] is ~1.1 nM.

Consider `O=C(NCc1cccnc1)Nc1ccc(C[S+]([O-])c2ccccc2-c2ccccc2)cc1` (stereo not drawn) [Example 210, 1-{4-[(biphenyl-2-ylsulfinyl)meth-yl]phenyl}-3-(pyridin-3-ylmethyl)urea], for which, in the data set with HCT116 cells [2], the IC50 was ~39 nM.

As to `O=C(NCCCNS(=O)(=O)c1ccccc1-c1ccccc1)NCc1cccnc1` [Example 152, N-(3-{[(pyridin-3-ylmethyl)carbamoyl]a-mino}propyl)biphenyl-2-sulfonamide], the IC50 with HCT116 cells [2] is ~55 nM.

For the compound `O=C(NCc1cccnc1)c1ccc(NCc2ccccc2-c2cccc(Cl)c2)cc1` [Example R30, 4-{[(3′-Chlorobiphenyl-2-yl)methyl]amino}-N-(pyridin-3-ylmethyl)benzamide], the figures for the IC50 in the data set on HCT116 cells [3] (setting [4]) and in the data set with HCT116 cells [3] (setting [5]) were 1350 nM and 29000 nM, respectively.

Take `N#C/N=C(\NCCCNS(=O)(=O)c1ccccc1-c1ccccc1)Nc1ccncc1` [Example R66, N-{3-[N″-cyano-N′-(pyridin-4-yl)carbamimidamido]propyl}biphenyl-2-sulfonamide]: the IC50 in the data set on HCT116 cells [3] (setting [4]) is 1.3 nM; with HCT116 cells [3] (setting [5]), 5000 nM.

As for `O=C(NCc1cccnc1)Nc1ccc(NS(=O)(=O)c2c(F)cc(F)cc2Br)cc1` [Example R61, 2-bromo-4,6-difluoro-N-(4-{[(pyridin-3-ylmethyl)carbamoyl]amino}phenyl)benzene-sulfonamide], the IC50 was 1.8 nM in the data set on HCT116 cells [3] (setting [4]) and > 1000 nM with HCT116 cells [3] (setting [5]).

On to `O=C(Nc1ccc(C(=O)NCc2cccnc2)cc1)Nc1cc(C(F)(F)F)cc(C(F)(F)F)c1` [Example R14, 4-({[3,5-Bis(trifluoromethyl)phenyl]carbamoyl}amino)-N-(pyridin-3-ylmethyl)benzamide], for which the IC50 with HCT116 cells [3] (setting [4]) was found to be 7390 nM; in the data set with HCT116 cells [3] (setting [5]) it was 21500 nM.
